Where a name gives a salt, the structure may show the parent alone. Read-outs that look alike come from different tables or passages of the source. Where only a bound is given, the exact number is not on record here.

The values that follow come from US8962690B2, “Compositions of dibromomalonamide and their use as biocides” (priority 2009, dated 2015).

Experiment [1] has as its system mixture of Pseudomonas aeruginosa ATCC 10145 and Staphylococcus aureus ATCC 6538. The experiment in a line: Kill Assay (minimum biocide concentration, MBC). In kind it is cell-based. Conditions: 2 h. Here is the method:
Kill Assay. This assay is used as a preliminary evaluation of synergy between the actives. The procedure is as follows. A mineral salts solution (0.2203 g of CaCl2, 0.1847 g of MgSO4, and 0.2033 g of NaHCO3 in 1 L water, approximately pH 8) is inoculated with equal amounts (about 10^7CFU/ml) of a mixture of Pseudomonas aeruginosa ATCC 10145 and Staphylococcus aureus ATCC 6538. Aliquots of the cell suspension are then treated with 2,2-dibromomalonamide (“DBMAL”), a surface active biocide, and their combinations at various concentration levels. […] The MBC values are then used to calculate a synergy index (SI) values. Summaries of the kill assay results are presented in the individual Examples. In each table, MBC values for each biocide and the blends tested are presented. Likewise, the Synergy Index (“SI”) values for the combinations are listed. SI is calculated with the following equation: Synergy Index=Ca/CA+Mb/CB where • Ca: Concentration of biocide A required for complete bacterial kill when used in combination with biocide B • CA: Concentration of biocide A required for complete bacterial kill when used alone • Cb: Concentration of biocide B required for complete bacterial kill when used in combination with biocide A • CB: […] Antagonistic

Experiment [2] relates to mixture of Pseudomonas aeruginosa, Klebsiella pneumoniae, Staphylococcus aureus, and Bacillus subtilis. The experiment in a line: Growth Inhibition Assay (microtiter plate, OD580). The class given is cell-based. Conditions: for inhibition at 0.39 µg/mL / inhibition at 0.78 µg/mL / inhibition at 1.56 µg/mL / inhibition at 3.13 µg/mL / inhibition at 6.25 µg/mL / inhibition at 12.5 µg/mL / inhibition at 25 µg/mL: 24 h. The text has this: Regardless of the mechanism of action, the impact of a biocide (or combination of biocides) can be measured over time on the basis of an increase in the size of the community.
The assay measures the efficacy of one or more biocides at preventing growth of a consortium of bacteria in a dilute mineral salts medium. The medium contains (in mg/l) the following components: FeCl3.6H2O (1); CaCl2.2H2O (10); MgSO4.7H2O (22.5); (NH4)2SO4 (40); KH2PO4 (10); K2HPO4 (25.5); Yeast Extract (10); and glucose (100). After all components are added to deionized water, the pH of the medium is adjusted to 7.5. Following filter sterilization, aliquots are dispensed in 100 ul quantities to sterile microtiter plate wells. Dilutions of DBMAL and/or “Biocide B” are then added to the microtiter plate. After preparing the combinations of actives as illustrated below, each well is inoculated with 100 μl of a cell suspension containing ca. 1×10^6 cells per milliliter of a mixture of Pseudomonas aeruginosa, Klebsiella pneumoniae, Staphylococcus aureus, and Bacillus subtilis. The final total volume of medium in each well is 300 μl. Once prepared as described herein, the concentration of each active ranges from 25 ppm to 0.195 ppm as illustrated in Table 1. The resulting matrix allows testing of eight concentrations of each active and 64 combinations of actives in the ratios (of actives).
Controls (not shown) contain the medium with no biocide added. After preparing the combinations of actives as illustrated above, each well is inoculated with 100 μl of a cell suspension containing ca. 1×10^6 cells per milliliter of a mixture of Pseudomonas aeruginosa, Klebsiella pneumoniae, Staphylococcus aureus, and Bacillus subtilis. The final total volume of medium in each well is 300 μl.
Immediately after the microtiter plates are prepared, the optical density (OD) readings for each well is measured at 580 nm and the plates are then incubated at 37° C. for 24 hr. After the incubation period, the plates are gently agitated before OD580 values are collected. The OD580 values at T0 are subtracted from T24 values to determine the total amount of growth (or lack thereof) that occurs. These values are used to calculate the percent inhibition of growth caused by the presence of each biocide and each of the 64 combinations.
where • CDBMAL: Concentration of DBMAL required to inhibit ˜90% of bacterial growth when used alone • CB: Concentration of biocide (B) required to inhibit ˜90% of bacterial growth when used alone. • MDBMAL: Concentration of DBMAL required to inhibit ˜90% of bacterial growth when used in combination with biocide (B). • MB: Concentration of biocide (B) required to inhibit ˜90% of bacterial growth when used in combination with DBMAL The SI values are interpreted as follows: • SI<1: Synergistic • SI=1: Additive • SI>1: Antagonistic
In the Examples below, the amounts of biocides in the solution are measured in mg per liter of solution (mg/l). Since solution densities are approximately 1.00, the mg/l measurement corresponds to weight ppm. Both units may therefore be used interchangeably in the Examples.

[3] abbreviates: read-out: % Inhibition of growth by DGH.
Setting [4] is: read-out: % Inhibition of growth by DDMAC.

Consider `NC(=O)C(Br)(Br)C(N)=O` [DBMAL, 2,2-dibromomalonamide], for which, in experiment [1] (read-out: MBC, 1st biocide DBMAL), the MBC (commonly the smallest concentration meeting the test's criterion for killing) worked out at 66.7 µg/mL. Also, the inhibition (usually the drop in the measured response relative to a control, in per cent) at 0.39 µg/mL in experiment [2] (DBMAL alone 0.39 mg/l, 24 hr (Table 3), read-out: % Inhibition of growth by DBMAL) is 28%; in experiment [2] (DBMAL alone 0.39 mg/l, 24 hr (Table 7), read-out: % Inhibition of growth by DBMAL), 19%. The inhibition at 0.78 µg/mL was 34% in experiment [2] (DBMAL alone 0.78 mg/l, 24 hr (Table 3), read-out: % Inhibition of growth by DBMAL); 3% in experiment [2] (DBMAL alone 0.78 mg/l, 24 hr (Table 5), read-out: % Inhibition of growth by DBMAL); 14% in experiment [2] (DBMAL alone 0.78 mg/l, 24 hr (Table 7), read-out: % Inhibition of growth by DBMAL). Besides, the inhibition at 1.56 µg/mL was determined as 26% in experiment [2] (DBMAL alone 1.56 mg/l, 24 hr (Table 3), read-out: % Inhibition of growth by DBMAL) and 8% in experiment [2] (DBMAL alone 1.56 mg/l, 24 hr (Table 7), read-out: % Inhibition of growth by DBMAL). In addition, the inhibition at 3.13 µg/mL in experiment [2] (DBMAL alone 3.13 mg/l, 24 hr (Table 3), read-out: % Inhibition of growth by DBMAL) was 1%; in experiment [2] (DBMAL alone 3.13 mg/l, 24 hr (Table 5), read-out: % Inhibition of growth by DBMAL) it was 1%; in experiment [2] (DBMAL alone 3.13 mg/l, 24 hr (Table 7), read-out: % Inhibition of growth by DBMAL), 10%. The inhibition at 6.25 µg/mL stood at 5% in experiment [2] (DBMAL alone 6.25 mg/l, 24 hr (Table 5), read-out: % Inhibition of growth by DBMAL); 16% in experiment [2] (DBMAL alone 6.25 mg/l, 24 hr (Table 7), read-out: % Inhibition of growth by DBMAL); 18% in experiment [2] (DBMAL alone 6.25 mg/l, 24 hr (Table 9), read-out: % Inhibition of growth by DBMAL).

Turning to `CCCCCCCCCCCCNC(=N)N` [DGH, dodecylguanidine hydrochloride], in experiment [2] (setting [3]), the inhibition at 0.39 µg/mL stood at 3%, the inhibition at 0.78 µg/mL came to 0%, the inhibition at 1.56 µg/mL is 0% and the inhibition at 3.13 µg/mL was determined as 3%. In addition, in experiment [2] (setting [3]), the inhibition at 6.25 µg/mL was found to be 52%, the inhibition at 12.5 µg/mL stood at 100% and the inhibition at 25 µg/mL stood at 100%.

Consider “C12-C16 alkyl dimethyl benzyl ammonium chloride [ADBAC]”, for which the “% Inhibition of growth by ADBAC” value in experiment [2] (ADBAC alone 0.78 mg/l, 24 hr) came out at 6%; in experiment [2] (ADBAC alone 1.56 mg/l, 24 hr), 50%. Also, in experiment [2] (single active, 24 hr), the “90% inhibition of growth concentration (I90)” value amounted to 3.13 mg/L.

As to `CCCCCCCC[N+](C)(C)CCCCCCCC.[Cl-]` [DDAC, dioctyl dimethyl ammonium chloride], the MBC in experiment [1] (read-out: MBC, 2nd biocide DDAC) is greater than 150 µg/mL.

On to `CCCCCCCCCC[N+](C)(C)CCCCCCCCCC` [DDMAC, didecyldimethyl ammonium chloride], for which, in experiment [2] (setting [4]), the inhibition at 0.39 µg/mL came out at 12%, the inhibition at 0.78 µg/mL turned out to be 23%, the inhibition at 1.56 µg/mL was determined as 26% and the inhibition at 3.13 µg/mL was 46%. Further, in experiment [2] (setting [4]), the inhibition at 6.25 µg/mL came to 100%, the inhibition at 12.5 µg/mL came to 100% and the inhibition at 25 µg/mL was found to be 100%.
